US11203601B2, “Tricyclic compounds as glycogen synthase kinase 3 (GSK3) inhibitors and uses thereof” (The Broad Institute, Inc., priority 2017, dated 2021)

Tests used:
Assay in all cases: Carna kinome panel
Assay type in all cases: biochemical
Settings in all cases: read-out: % Inhibition at 10 μM of the test compound
CDK7/CycH/MAT1 = CDK7/CycH/MAT1 (Homo sapiens (Human), UniProt P50613)
EPHB2 = EPHB2 (Homo sapiens (Human), UniProt P29323)
PKCη = PKCη (Homo sapiens (Human), UniProt P24723)
MLK1_Cascade = MLK1_Cascade (Homo sapiens (Human), UniProt P80192)
CHK1 = CHK1 (Homo sapiens (Human), UniProt O14757)
JAK3 = JAK3 (Homo sapiens (Human), UniProt P52333)
MAP2K2_Cascade = MAP2K2_Cascade (Homo sapiens (Human), UniProt P36507)
CSK = CSK (Homo sapiens (Human), UniProt P41240)
LYNa = LYNa (Homo sapiens (Human), UniProt P07948)
MAP2K6_Cascade = MAP2K6_Cascade (Homo sapiens (Human), UniProt P52564)
CDK6/CycD3 = CDK6/CycD3 (Homo sapiens (Human), UniProt Q00534)
Chain of CDK6/CycD3 (Q00534 whole entry, looked up): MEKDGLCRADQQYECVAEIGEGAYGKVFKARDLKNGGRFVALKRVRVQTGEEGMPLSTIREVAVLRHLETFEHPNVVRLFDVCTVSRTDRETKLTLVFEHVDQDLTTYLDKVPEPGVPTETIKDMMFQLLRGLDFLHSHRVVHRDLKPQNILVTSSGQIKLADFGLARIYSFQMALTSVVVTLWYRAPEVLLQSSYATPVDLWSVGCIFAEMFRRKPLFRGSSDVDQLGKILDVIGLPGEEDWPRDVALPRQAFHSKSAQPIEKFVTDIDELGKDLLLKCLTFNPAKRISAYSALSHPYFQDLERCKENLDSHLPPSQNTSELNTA
Chain of CDK6/CycD3 (P30281 whole entry partner, looked up): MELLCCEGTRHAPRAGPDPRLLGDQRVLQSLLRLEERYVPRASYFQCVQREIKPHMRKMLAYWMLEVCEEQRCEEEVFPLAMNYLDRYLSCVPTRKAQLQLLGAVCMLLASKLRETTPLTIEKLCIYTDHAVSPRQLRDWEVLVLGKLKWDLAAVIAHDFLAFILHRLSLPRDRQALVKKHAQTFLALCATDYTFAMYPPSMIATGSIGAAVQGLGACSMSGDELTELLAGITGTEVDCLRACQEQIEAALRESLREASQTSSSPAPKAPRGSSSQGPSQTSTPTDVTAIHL

LTK = LTK (Homo sapiens (Human), UniProt P29376)
Protocol: Briefly, a selection of compounds was screened against a panel of kinases at a single concentration of 10 μM. […] This was completed using one of two assays, depending on the kinase being examined: 1) IMAP Assay. A solution of 4× inhibitor, 4× substrate/ATP/metal solution and 2× kinase solution was prepared with assay buffer (20 mM HEPES, 0.01% Tween-20, 2 mM DTT, pH 7.4) and mixed, then incubated in 384-well black plates for 1 hour at room temperature. The IMAP binding reagent (IMAP Screening Express kit; Molecular Devices) was added to each well and incubated for 30 minutes. […] 2) Off-Chip Mobility Shift Assay (MSA). A solution of 4× inhibitor, 4× substrate/ATP/metal solution and 2× kinase solution was prepared with assay buffer (20 mM HEPES, 0.01% Triton X-100, 2 mM DTT, pH 7.5) and mixed, then incubated in 384-well plates for 1 or 5 hours depending on the kinase, at room temperature. Termination buffer (QuickScout Screening assist MSA; Carna Biosciences) was added to each well. The entire reaction mixture was then applied to a LabChip3000 system (Caliper Life Science), and the product and substrate peptide peaks were separated and quantified. […] The entire reaction mixture was then applied to a LabChip3000 system (Caliper Life Science), and the product and substrate peptide peaks were separated and quantified.

FLT3 = FLT3 (Homo sapiens (Human), UniProt P36888)
Chain of FLT3 (P36888 27-993): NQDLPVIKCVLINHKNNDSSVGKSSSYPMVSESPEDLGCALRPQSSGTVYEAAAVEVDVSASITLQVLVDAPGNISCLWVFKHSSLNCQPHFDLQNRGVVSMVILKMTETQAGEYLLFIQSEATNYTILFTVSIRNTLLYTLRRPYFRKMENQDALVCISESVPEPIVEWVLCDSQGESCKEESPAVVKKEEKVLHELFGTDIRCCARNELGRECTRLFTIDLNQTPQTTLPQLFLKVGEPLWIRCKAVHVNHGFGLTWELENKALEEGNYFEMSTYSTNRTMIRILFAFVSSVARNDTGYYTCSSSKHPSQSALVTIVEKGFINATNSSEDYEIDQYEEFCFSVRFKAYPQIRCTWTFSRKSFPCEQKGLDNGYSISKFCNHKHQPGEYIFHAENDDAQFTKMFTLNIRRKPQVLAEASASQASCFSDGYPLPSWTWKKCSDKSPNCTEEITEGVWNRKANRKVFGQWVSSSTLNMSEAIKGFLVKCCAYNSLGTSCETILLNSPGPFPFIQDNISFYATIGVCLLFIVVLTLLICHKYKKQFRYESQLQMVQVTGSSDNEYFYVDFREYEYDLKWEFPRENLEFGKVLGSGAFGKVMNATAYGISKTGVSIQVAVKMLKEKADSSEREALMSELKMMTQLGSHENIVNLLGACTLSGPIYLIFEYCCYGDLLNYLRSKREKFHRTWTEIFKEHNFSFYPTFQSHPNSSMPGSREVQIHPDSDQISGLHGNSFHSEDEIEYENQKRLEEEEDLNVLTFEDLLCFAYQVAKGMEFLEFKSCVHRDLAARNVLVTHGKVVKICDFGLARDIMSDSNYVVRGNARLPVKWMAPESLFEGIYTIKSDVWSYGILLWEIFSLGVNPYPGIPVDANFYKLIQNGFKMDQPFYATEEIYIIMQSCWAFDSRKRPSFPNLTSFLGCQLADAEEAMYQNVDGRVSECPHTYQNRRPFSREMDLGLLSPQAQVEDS

PAK5 = PAK5 (Homo sapiens (Human), UniProt Q9P286)
Chain of PAK5 (Q9P286 whole entry): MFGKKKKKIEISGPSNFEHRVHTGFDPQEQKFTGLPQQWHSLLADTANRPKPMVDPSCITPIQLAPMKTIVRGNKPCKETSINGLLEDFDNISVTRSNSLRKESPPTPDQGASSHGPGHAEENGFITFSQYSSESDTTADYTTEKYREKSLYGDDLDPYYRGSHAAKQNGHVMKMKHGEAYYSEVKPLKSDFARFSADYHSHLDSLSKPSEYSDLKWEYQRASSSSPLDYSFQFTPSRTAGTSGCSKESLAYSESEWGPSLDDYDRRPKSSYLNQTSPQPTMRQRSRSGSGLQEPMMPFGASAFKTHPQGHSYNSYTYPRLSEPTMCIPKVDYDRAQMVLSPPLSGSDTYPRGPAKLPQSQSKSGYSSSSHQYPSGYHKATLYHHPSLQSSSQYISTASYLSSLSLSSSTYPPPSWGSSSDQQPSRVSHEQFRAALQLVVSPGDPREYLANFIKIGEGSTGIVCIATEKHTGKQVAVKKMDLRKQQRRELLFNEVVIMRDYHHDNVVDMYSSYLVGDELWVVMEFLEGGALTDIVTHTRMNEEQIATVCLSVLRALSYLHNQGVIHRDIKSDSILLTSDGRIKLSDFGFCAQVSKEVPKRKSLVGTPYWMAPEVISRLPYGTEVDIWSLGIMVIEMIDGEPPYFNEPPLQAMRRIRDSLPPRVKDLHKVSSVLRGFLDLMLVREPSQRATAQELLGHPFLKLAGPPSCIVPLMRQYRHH

PDGFRα(V561D) = PDGFRα(V561D) (Homo sapiens (Human), UniProt P16234, V561D)
Chain of PDGFRα(V561D) (P16234 24-1089 V561D): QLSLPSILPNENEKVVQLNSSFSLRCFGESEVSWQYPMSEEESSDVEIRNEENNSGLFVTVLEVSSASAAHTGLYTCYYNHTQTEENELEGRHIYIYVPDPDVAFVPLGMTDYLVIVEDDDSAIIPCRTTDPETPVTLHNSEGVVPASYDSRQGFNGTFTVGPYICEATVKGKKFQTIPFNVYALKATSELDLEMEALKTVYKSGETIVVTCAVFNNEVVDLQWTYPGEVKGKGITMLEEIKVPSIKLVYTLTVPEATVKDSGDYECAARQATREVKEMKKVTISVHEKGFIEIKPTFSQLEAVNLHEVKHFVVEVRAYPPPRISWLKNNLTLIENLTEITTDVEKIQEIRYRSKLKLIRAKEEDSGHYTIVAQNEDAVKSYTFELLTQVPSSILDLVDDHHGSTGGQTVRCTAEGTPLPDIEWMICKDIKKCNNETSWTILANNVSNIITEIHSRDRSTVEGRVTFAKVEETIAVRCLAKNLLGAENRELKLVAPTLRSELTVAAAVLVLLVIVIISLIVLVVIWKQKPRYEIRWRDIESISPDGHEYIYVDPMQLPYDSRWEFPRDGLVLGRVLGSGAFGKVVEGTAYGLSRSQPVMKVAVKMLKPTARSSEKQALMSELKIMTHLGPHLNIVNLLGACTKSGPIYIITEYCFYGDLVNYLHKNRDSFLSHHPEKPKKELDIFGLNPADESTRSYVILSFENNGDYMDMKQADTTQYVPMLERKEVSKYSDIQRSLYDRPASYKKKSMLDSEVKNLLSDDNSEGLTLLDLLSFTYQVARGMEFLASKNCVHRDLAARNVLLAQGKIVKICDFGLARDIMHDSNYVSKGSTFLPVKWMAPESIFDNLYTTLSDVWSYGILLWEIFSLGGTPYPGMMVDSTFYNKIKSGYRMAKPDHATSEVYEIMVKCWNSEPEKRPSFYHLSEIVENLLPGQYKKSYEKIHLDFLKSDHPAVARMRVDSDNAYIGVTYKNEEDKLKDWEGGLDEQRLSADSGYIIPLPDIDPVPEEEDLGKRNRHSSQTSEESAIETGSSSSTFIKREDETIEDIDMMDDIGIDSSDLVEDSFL

MAP2K7_Cascade = MAP2K7_Cascade (Homo sapiens (Human), UniProt O14733)
Chain of MAP2K7_Cascade (O14733 whole entry): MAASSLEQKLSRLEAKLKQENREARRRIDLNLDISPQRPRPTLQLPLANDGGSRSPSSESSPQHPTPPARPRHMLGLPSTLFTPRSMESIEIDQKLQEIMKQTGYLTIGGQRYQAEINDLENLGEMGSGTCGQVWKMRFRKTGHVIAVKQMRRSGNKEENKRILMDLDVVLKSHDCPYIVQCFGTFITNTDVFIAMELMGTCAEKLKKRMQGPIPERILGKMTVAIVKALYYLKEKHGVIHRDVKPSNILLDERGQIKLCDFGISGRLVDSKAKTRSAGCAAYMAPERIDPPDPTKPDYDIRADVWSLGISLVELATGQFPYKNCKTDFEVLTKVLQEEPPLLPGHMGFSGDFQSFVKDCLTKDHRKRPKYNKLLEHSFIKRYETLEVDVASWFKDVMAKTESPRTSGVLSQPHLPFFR

FGFR1(V561M) = FGFR1(V561M) (Homo sapiens (Human), UniProt P11362, V561M)
DLK_Cascade = DLK_Cascade (Homo sapiens (Human), UniProt Q12852)
MRCKβ = MRCKβ (Homo sapiens (Human), UniProt Q9Y5S2)
CRIK = CRIK (Homo sapiens (Human), UniProt O14578)
MINK = MINK (Homo sapiens (Human), UniProt Q8N4C8)
MST3 = MST3 (Homo sapiens (Human), UniProt Q9Y6E0)
AKT2 = AKT2 (Homo sapiens (Human), UniProt P31751)
LYNb = LYNb (Homo sapiens (Human), UniProt P07948)
MSK2 = MSK2 (Homo sapiens (Human), UniProt O75676)
DDR2 = DDR2 (Homo sapiens (Human), UniProt Q16832)
Chain of DDR2 (Q16832 22-855): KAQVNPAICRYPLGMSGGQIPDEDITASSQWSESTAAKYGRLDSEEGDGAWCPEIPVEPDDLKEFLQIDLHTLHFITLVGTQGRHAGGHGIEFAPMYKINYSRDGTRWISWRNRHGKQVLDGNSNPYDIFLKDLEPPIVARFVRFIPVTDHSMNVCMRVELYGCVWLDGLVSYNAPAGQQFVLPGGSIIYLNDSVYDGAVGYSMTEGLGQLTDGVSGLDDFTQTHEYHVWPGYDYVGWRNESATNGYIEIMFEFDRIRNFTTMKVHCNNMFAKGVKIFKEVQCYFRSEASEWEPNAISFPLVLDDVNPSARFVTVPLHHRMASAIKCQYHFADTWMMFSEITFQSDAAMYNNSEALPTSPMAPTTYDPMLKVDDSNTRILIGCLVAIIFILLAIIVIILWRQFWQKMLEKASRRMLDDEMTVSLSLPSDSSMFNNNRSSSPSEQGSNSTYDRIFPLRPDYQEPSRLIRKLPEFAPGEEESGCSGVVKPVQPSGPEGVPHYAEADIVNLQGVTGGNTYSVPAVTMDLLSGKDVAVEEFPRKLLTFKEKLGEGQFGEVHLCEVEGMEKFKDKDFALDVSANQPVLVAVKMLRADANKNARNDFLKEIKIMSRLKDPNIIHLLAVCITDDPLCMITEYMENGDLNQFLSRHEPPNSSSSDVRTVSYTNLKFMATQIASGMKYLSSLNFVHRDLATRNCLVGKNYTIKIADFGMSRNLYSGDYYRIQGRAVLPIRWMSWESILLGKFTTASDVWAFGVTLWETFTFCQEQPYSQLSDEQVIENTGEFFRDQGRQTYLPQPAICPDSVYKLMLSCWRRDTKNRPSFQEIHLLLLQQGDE

BRK = BRK (Homo sapiens (Human), UniProt Q13882)
FMS = FMS (Homo sapiens (Human), UniProt P07333)
SLK = SLK (Homo sapiens (Human), UniProt Q9H2G2)
HER2 = HER2 (Homo sapiens (Human), UniProt P04626)
MSK1 = MSK1 (Homo sapiens (Human), UniProt O75582)
HIPK3 = HIPK3 (Homo sapiens (Human), UniProt Q9H422)
WNK1 = WNK1 (Homo sapiens (Human), UniProt Q9H4A3)
KIT(V654A) = KIT(V654A) (Homo sapiens (Human), UniProt P10721, V654A)
MET(M1250T) = MET(M1250T) (Homo sapiens (Human), UniProt P08581, M1250T)
LOK = LOK (Homo sapiens (Human), UniProt O94804)
TSSK3 = TSSK3 (Homo sapiens (Human), UniProt Q96PN8)
Chain of TSSK3 (Q96PN8 whole entry): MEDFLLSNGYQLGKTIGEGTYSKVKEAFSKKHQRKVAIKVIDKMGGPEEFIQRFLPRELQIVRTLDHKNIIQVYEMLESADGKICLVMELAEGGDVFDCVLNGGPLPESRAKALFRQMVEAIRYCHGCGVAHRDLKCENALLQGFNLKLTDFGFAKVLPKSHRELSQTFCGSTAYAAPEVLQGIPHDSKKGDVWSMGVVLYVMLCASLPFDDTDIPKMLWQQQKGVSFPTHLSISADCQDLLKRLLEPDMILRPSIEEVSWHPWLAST

ALK(L1196M) = ALK(L1196M) (Homo sapiens (Human), UniProt Q9UM73, L1196M)
PLK1 = PLK1 (Homo sapiens (Human), UniProt P53350)
NuaK1 = NuaK1 (Homo sapiens (Human), UniProt O60285)

Structure (SMILES): CCC1(c2ccccc2)C2=C(CC(C)(C)CC2=O)Nc2ncsc21 (stereo not shown) [Compound 1, 9-Ethyl-6,6-dimethyl-9-phenyl-5,6,7,9-tetrahydrothiazolo[4,5-b]quinolin-8(4H)-one]
- inhibition at 10 µM (CDK7/CycH/MAT1): 22.6%
- inhibition at 10 µM (EPHB2): 14.5%
- inhibition at 10 µM (PKCη): 9.3%
- inhibition at 10 µM (MLK1_Cascade): 7.5%
- inhibition at 10 µM (CHK1): 7%
- inhibition at 10 µM (JAK3): 6.9%
- inhibition at 10 µM (MAP2K2_Cascade): 6.4%
- inhibition at 10 µM (CSK): 6.1%
- inhibition at 10 µM (LYNa): 6%
- inhibition at 10 µM (MAP2K6_Cascade): 5.6%
- inhibition at 10 µM (CDK6/CycD3): 5.5%
- inhibition at 10 µM (LTK): 3.1%
- inhibition at 10 µM (FLT3): 2.9%
- inhibition at 10 µM (PAK5): 2.9%
- inhibition at 10 µM (PDGFRα(V561D)): 2.8%
- inhibition at 10 µM (MAP2K7_Cascade): 2.8%
- inhibition at 10 µM (FGFR1(V561M)): 2.6%
- inhibition at 10 µM (DLK_Cascade): 2.5%
- inhibition at 10 µM (MRCKβ): 2%
- inhibition at 10 µM (CRIK): 1.6%
- inhibition at 10 µM (MINK): 1.5%
- inhibition at 10 µM (MST3): 1.4%
- inhibition at 10 µM (AKT2): 1%
- inhibition at 10 µM (LYNb): 0.8%
- inhibition at 10 µM (MSK2): 0.7%
- inhibition at 10 µM (DDR2): 0.6%
- inhibition at 10 µM (BRK): 0.3%
- inhibition at 10 µM (FMS): 0.3%
- inhibition at 10 µM (SLK): -0.6%
- inhibition at 10 µM (HER2): -1%
- inhibition at 10 µM (MSK1): -1%
- inhibition at 10 µM (HIPK3): -1.9%
- inhibition at 10 µM (WNK1): -2.1%
- inhibition at 10 µM (KIT(V654A)): -3.5%
- inhibition at 10 µM (MET(M1250T)): -4.2%
- inhibition at 10 µM (LOK): -4.7%
- inhibition at 10 µM (TSSK3): -5.1%
- inhibition at 10 µM (ALK(L1196M)): -5.2%
- inhibition at 10 µM (PLK1): -5.3%
- inhibition at 10 µM (NuaK1): -9.2%
